Assays:
[1] = Current responses of the lipid bilayer without receptor (pure lipid layer); details: for alterations of the electrical properties of the lipid layer without receptor: same concentration range as with receptor; for Icap current response / Ifarad current response: pure lipid layer without receptor
Method: For comparison, a corresponding lipid bilayer without the receptor protein was formed by completing the imperfect thiolipid monolayer on the gold electrode with the corresponding pure phospholipid/detergent solution.
The same experiment was performed using a lipid layer without receptor.
The same experiment was performed using the lipid bilayer without receptor.
A large (geometrical area about 1 cm^2) AgCl-coated Ag wire served as the counter/reference electrode and was fixed at a defined distance from the working electrode. […] The real and imaginary parts of the impedance were obtained from the currents in phase (faradaic component Ifarad) and 90° out of phase (capacitive component Icap) with the applied voltage, respectively. These currents were measured on a 1 k.OMEGA. resistor in series with the electrodes.
(§1) The impedance and capacitance of the membrane layers on the gold electrodes were determined from the two current components, Ifarad and Icap, using a simplified model for the electrical behaviour of the membrane with the membrane resistance R=Uo /Ifarad in parallel to the membrane capacitance C=Icap /(2πvUo).

[2] = biological target: T1, 5-HT3 receptor (Bos taurus, UniProt F1N4Y2); test: Current responses of gold-supported lipid bilayer sensor with incorporated 5-HT3 receptor during stimulation by agonists, without or with antagonist; type: biochemical, calf
T1 construct: from tissue; host or cells: calf brain, entorhinal cortex and hippocampus; detergent (OPG) solubilised and purified on 5-HT-agarose
T1 sequence (F1N4Y2 29-488): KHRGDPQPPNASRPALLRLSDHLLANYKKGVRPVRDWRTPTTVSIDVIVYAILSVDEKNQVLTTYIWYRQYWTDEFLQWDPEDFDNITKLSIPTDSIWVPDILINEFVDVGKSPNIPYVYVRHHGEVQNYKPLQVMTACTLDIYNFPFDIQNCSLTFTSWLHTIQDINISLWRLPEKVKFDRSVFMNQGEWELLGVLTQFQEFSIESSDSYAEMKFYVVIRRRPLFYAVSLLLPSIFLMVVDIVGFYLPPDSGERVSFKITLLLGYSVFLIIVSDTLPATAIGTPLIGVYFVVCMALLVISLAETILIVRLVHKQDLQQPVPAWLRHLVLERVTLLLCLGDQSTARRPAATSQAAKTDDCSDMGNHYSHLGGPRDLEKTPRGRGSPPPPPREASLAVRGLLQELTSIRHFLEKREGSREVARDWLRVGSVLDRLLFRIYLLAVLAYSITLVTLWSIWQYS
Method: A 1 mm^2 gold electrode was cleaned and inserted into the electrochemical cell as described in Example 5. First, 100 μl of the thiolipid/OPG solution (0.7 mM/48 mM in 0.1 M KCl) was added and the adsorption process followed as described in Example 6. After approximately 2 minutes, the solution was completely replaced. The sample was washed several times with 55 mM OGP in 0.1 M KCl.
A receptor-containing solution was prepared as follows: 2 mg (2.9 μmol) of DMPC, 2 mg (2.6 μmol) of POPC (i.e. an approximately 1:1 molar ratio of DMPC: POPC) and 2 mg ([…]) of OPG were ultrasonicated in 1 ml of 0.1 M KCl, until the solution became clear. This solution was mixed with 15 μg of the 5-HT3 receptor (1 mg/ml, in 40 mM OPG and complex buffer "A" as used in Example 4), 100 μl of the receptor-containing solution was placed in the cell. After about 2 minutes, the cell solution was diluted stepwise by the addition of small portions of 0.1 M KCl. Finally, the solution was completely replaced by 0.1 M KCl. The resulting layer was used for experiments within 5 hours at most, then being removed by washing with 55 mM OGP in 0.1 M KCl and formed again using the ice-cooled receptor solution.
50 μl portions of 5-HT solution "B" (20 μM 5-HT in 0.1 M KCl) were added successively to the layer with the incorporated receptor (still connected to the cell containing 500 μl of 0.1 M KCl). An interval of about 50 seconds was left between additions (the capacitive and the faradaic current reaching a constant value).
The construction of the receptor-containing system was performed as described above. Again, 500 μl of 0.1 M KCl was placed in the measurement cell but for stimulation, a solution "C" of 20 μM 1-phenylbiguanide, another agonist, in 0.1 M KCl was used.
The supported lipid bilayer, containing the 5-HT3 receptor, was formed as described in (ii). […] After each addition, the values of the capacitive and the faradaic currents were allowed to stabilize.
A large (geometrical area about 1 cm^2) AgCl-coated Ag wire served as the counter/reference electrode and was fixed at a defined distance from the working electrode. The impedance measurements were made using a two-channel lock-in amplifier (EG&G model 5206) at v=120 Hz, applying Uo =17.5 mV RMS to the electrochemical cell. The real and imaginary parts of the impedance were obtained from the currents in phase (faradaic component Ifarad) and 90° out of phase (capacitive component Icap) with the applied voltage, respectively. These currents were measured on a 1 k.OMEGA. resistor in series with the electrodes.
as §1

[3] = phenylbiguanide 1.82 μM, Experiment 1
[4] = phenylbiguanide 1.82 μM, Experiment 2
[5] = phenylbiguanide 3.33 μM, Experiment 1
[6] = phenylbiguanide 3.33 μM, Experiment 2
[7] = phenylbiguanide 4.62 μM, Experiment 1
[8] = phenylbiguanide 4.62 μM, Experiment 2
[9] = phenylbiguanide 5.71 μM, Experiment 1
[10] = phenylbiguanide 5.71 μM, Experiment 2
[11] = phenylbiguanide 6.67 μM, Experiment 1
[12] = phenylbiguanide 6.67 μM, Experiment 2
[13] = phenylbiguanide 7.50 μM, Experiment 1
[14] = phenylbiguanide 7.50 μM, Experiment 2
[15] = phenylbiguanide 8.89 μM, Experiment 1
[16] = phenylbiguanide 8.89 μM, Experiment 2
[17] = phenylbiguanide 11.67 μM, Experiment 1
[18] = phenylbiguanide 11.67 μM, Experiment 2
[19] = phenylbiguanide 12.86 μM, Experiment 1
[20] = phenylbiguanide 12.86 μM, Experiment 2
[21] = phenylbiguanide 14.74 μM, Experiment 1
[22] = phenylbiguanide 14.74 μM, Experiment 2
[23] = phenylbiguanide 10. μM, Experiment 1
[24] = phenylbiguanide 10. μM, Experiment 2

With NCCc1c[nH]c2ccc(O)cc12 [5-hydroxytryptamine] the “alterations of the electrical properties of the lipid layer without receptor” value [1] was “no alterations of the electrical properties of the pure lipid layer were observed”.
With N=C(N)NC(=N)Nc1ccccc1 [1-phenylbiguanide] the Icap current response ([1]; 1-phenylbiguanide 7.5 μM) was 96.5 nA, the Ifarad current response ([1]; 1-phenylbiguanide 7.5 μM) was 20.9 nA and the Icap current response ([1]; 1-phenylbiguanide 14.74 μM) was 96.4 nA. It also gave an Ifarad current response ([1]; 1-phenylbiguanide 14.74 μM) of 20.7 nA, an Icap current response [2, 3] of 96.3 nA and an Ifarad current response [2, 3] of 23.6 nA. It also gave an Icap current response [2, 4] of 97.3 nA, an Ifarad current response [2, 4] of 22.7 nA and an Icap current response [2, 5] of 97.1 nA. The Ifarad current response [2, 5] was 26.1 nA, the Icap current response [2, 6] was 98.0 nA and the Ifarad current response [2, 6] was 25.0 nA. It also gave an Icap current response [2, 7] of 97.6 nA, an Ifarad current response [2, 7] of 27.7 nA and an Icap current response [2, 8] of 98.5 nA. The Ifarad current response [2, 8] was 26.6 nA, the Icap current response [2, 9] was 98 nA and the Ifarad current response [2, 9] was 28.9 nA. For the same compound, the Icap current response [2, 10] was 99.2 nA, the Ifarad current response [2, 10] was 28.3 nA and the Icap current response [2, 11] was 98.3 nA. It also gave an Ifarad current response [2, 11] of 29.7 nA, an Icap current response [2, 12] of 99.4 nA and an Ifarad current response [2, 12] of 29.0 nA. The Icap current response [2, 13] was 98.4 nA, the Ifarad current response [2, 13] was 30.1 nA and the Icap current response [2, 14] was 99.5 nA. The Ifarad current response [2, 14] was 29.5 nA, the Icap current response [2, 15] was 98.5 nA and the Ifarad current response [2, 15] was 30.6 nA. The Icap current response [2, 16] was 99.6 nA, the Ifarad current response [2, 16] was 29.8 nA and the Icap current response [2, 17] was 98.6 nA. For the same compound, the Ifarad current response [2, 17] was 31.1 nA, the Icap current response [2, 18] was 99.6 nA and the Ifarad current response [2, 18] was 30.3 nA. It also gave an Icap current response [2, 19] of 98.6 nA, an Ifarad current response [2, 19] of 31.2 nA and an Icap current response [2, 20] of 99.6 nA. The Ifarad current response [2, 20] was 30.4 nA, the Icap current response [2, 21] was 98.6 nA and the Ifarad current response [2, 21] was 31.2 nA. It also gave an Icap current response [2, 22] of 99.6 nA, an Ifarad current response [2, 22] of 30.4 nA and an Icap current response [2, 23] of 98.6 nA. The Ifarad current response [2, 23] was 30.8 nA, the Icap current response [2, 24] was 99.6 nA and the Ifarad current response [2, 24] was 30.0 nA.
For CN1C2CCC1CC(OC(=O)c1c[nH]c3ccccc13)C2 (stereo not drawn) [ICS 205-930], the “alterations of the electrical properties of the lipid layer without receptor” value [1] was “No alterations of the electrical properties of the lipid bilayer” and the “5-HT concentration necessary for binding to the receptor, times higher than in the absence of the antagonist” value ([2]; in the presence of 10 nM ICS 205-930) was “about 40 times”.
